Results as given in patent US11896678B2, “Compositions and methods for treatment of peroxisome proliferator-activated receptor gamma (PPARG) activated cancer” (THE BROAD INSTITUTE, INC., priority 2017, dated 2024).

Assays:
PPARG = target: T1, PPARG (Homo sapiens, UniProt P37231); assay: RT112/84 FABP4-NLucP reporter gene assay, antagonist mode with rosiglitazone; type: cell-based; conditions: in the presence of rosiglitazone
T1 construct: endogenous in cells; host or cells: RT112/84 bladder cancer cells (FABP4-NLucP knock-in clone)
T1 sequence (P37231 1-477 isoform P37231-2): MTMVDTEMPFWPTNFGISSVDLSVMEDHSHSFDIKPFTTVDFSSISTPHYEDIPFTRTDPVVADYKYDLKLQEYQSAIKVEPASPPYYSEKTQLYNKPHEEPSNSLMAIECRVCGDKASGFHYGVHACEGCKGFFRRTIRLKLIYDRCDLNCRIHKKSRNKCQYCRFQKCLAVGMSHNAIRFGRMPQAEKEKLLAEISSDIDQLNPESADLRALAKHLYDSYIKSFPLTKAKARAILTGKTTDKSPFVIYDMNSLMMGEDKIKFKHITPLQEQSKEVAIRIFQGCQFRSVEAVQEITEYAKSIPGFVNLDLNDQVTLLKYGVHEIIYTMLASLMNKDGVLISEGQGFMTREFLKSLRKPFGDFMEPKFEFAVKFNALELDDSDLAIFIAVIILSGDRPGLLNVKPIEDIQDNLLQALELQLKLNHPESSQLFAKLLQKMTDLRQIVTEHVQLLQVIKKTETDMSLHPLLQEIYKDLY
Experimental: RT112-FABP4-NLucP Reporter Gene Assay: Reporter cell line was generated by engineering NanoLuc gene into the 3′ UTR of FABP4 in RT112/84 cells using CRISPR/Cas9 guided genome engineering. Single cell clones were generated and the clone with the widest dynamic range selected for use. Assays were performed by seeding 384-well plates with ˜10,000 cells per well in MEMalpha containing 10% FBS and dosing compounds at indicated concentration using HP D300 digital dispenser (HP/Tecan). 18-24 hours after dosing with compound, cells were assayed using NanoGlo Luciferase Assay Reagent (Promega Madison, WI) and plates were read using EnVision Multilabel Reader (PerkinElmer Waltham, MA).

FABP4 expression = assay: Immunoblot of FABP4 in bladder cancer cell lines; type: cell-based, human; conditions: panel of bladder cancer cell lines
Experimental: Western Blot Analysis: Western blots were performed using standard protocols with semi-dry transfer Trans-Blot® SD (Bio-Rad Hercules, CA), Li-Cor Odyssey Blocking buffer, and imaging with LiCor Odyssey Imaging System (LI-COR Lincoln, NE). Briefly, cells were grown in 6-well plates and harvested using Complete Lysis-M with protease and phosphatase inhibitors (Roche Applied Science). Western blot analyses were performed using standard protocols with semi-dry transfer Trans-Blot SD (Bio-Rad), LI-COR Odyssey Blocking buffer, and imaging with LI-COR Odyssey Imaging System (LI-COR). The anti-PPARG C26H12, anti-PPARG 81B8, anti-FABP4 D25B3, and anti-CEACAM5 CB30 antibodies were obtained from Cell Signaling Technology. The anti-ACSL5 ab57210 and anti-HMCGS2 EPR8642 antibodies were obtained from Abcam. The anti-VCL (vinculin) V9264 antibody was obtained from Sigma-Aldrich. All primary antibodies were tested at 1:1,000 dilutions, with the exception of anti-VCL, which was tested at a 1:5,000 dilution. Secondary goat anti-mouse 926-68020, and goat-anti-rabbit 926-32211 antibodies were obtained from LI-COR Biosciences and used at 1:15,000 dilutions.

[1] = system: PPARG target gene expression in UM-UC-9 cells; assay: RNA sequencing of UM-UC-9 cells after 7 days dosing; type: cell-based, human; conditions: 500 nmol/L
Experimental: Next, the effects of long-term dosing on the transcriptional profile of the PPARG-amplified cell line, UMUC-9, were evaluated. Briefly, UM-UC-9 cells were treated for 7 days with various PPARG modulators dosed at 500 nmol/L and gene expression was analyzed using RNA sequencing. […] Genes that were more abundantly expressed upon treatment with inverse-agonists included ALPP, SPINK4, and ALDH1A3 (FIG. 5). […] In summary, the in vitro pharmacological properties of known PPARG modulators have been characterized and two distinct chemotypes with bona-fide inverse-agonist activity in PPARG-activated bladder cancer cells were identified.
RNAseq analysis: RNA was isolated using RNEasy (Qiagen) and an RNAseq library was prepared using NEBNext Ultra Directional RNA Library Prep Kit for Illumina and NEBNext Multiplex Oligos for Illumina (New England BioLabs). RNAseq sequencing was performed using an Illumina MiSeq instrument according to the manufacturers protocol. Sequence data was analyzed using Firehose (Broad Institute, Cambridge MA) to map transcripts and calculate RPKM (SW780 cDNA expression) or TPM (UM-UC-9).
For UM-UC-9 RNAseq experiment, the resulting reads were used to calculate transcript abundance in units of TPM (transcripts per million) (18), which were then adjusted using TMM normalization (19) for comparison. […]

[2] = system: PPARG-activated pancreatic and colorectal cancer cell lines; assay: Kinetic proliferation assay in pancreatic and colorectal cancer cell lines; type: cell-based; conditions: 500 nM
Description: To enable cell-counting, cell lines were transduced with a lentiviral vector encoding nuclear-targeted GFP (TagGFP2-H2B), and stable pools generated following selection for puromycin-resistance. Cell lines were maintained for at least 7 days following selection prior to expansion and seeding into 96-well plates for further analysis. For kinetic proliferation assays, 96-well plates were imaged in phase-contrast and green fluorescence mode every two hours using IncuCyte Zoom (Essen BioScience, Ann Arbor MI). Using IncuCyte software, the number of fluorescent nuclei were counted to monitor quantitative changes in cell number over time. Media and compounds were replaced approximately every 3-4 days.
DMSO treatment was also included as a vehicle control.

[3] = target: T2, PPARG ligand-binding domain - SMRT/NCOR2 corepressor peptide (Homo sapiens, UniProt P37231); assay: TR-FRET corepressor assay, SMRT/NCOR2 peptide; type: biochemical
T2 construct: purchased ThermoFisher Scientific
T2 sequence (P37231 238-503 limits assumed): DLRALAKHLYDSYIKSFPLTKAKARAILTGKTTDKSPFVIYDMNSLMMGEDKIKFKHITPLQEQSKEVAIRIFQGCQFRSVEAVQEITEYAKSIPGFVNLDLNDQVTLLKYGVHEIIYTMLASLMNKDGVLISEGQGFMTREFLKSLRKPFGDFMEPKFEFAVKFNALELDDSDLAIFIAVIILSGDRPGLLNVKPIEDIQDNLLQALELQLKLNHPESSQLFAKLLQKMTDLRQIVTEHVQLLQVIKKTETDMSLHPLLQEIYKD
Experimental: To evaluate inverse-agonism, a TR-FRET PPARG co-repressor assay (ThermoFisher) that measures recruitment of a fluorescent NCOR1 or NCOR2 corepressor peptide to the PPARG ligand-binding domain was used (ThermoFisher).
To determine effects on interactions between PPARG and coregulators, PPARG modulators were tested in two TR-FRET biochemical interaction assays for agonism and inverse-agonism. Agonism was quantitated using a coactivator assay, which measured the interaction between the PPARG ligand-binding domain and a fluorescently-labeled peptide from TRAP220/MED1. […] To evaluate inverse-agonism biochemically, ligand-dependent interactions were measured between PPARG ligand-binding domain and corepressor peptides from NCoR/NCOR1 and SMRT/NCOR2.

increase in signal [3]: 1.7 fold
Structure (SMILES): O=C(Nc1ccccc1)c1cc([N+](=O)[O-])ccc1Cl [GW9662]
effect on agonist-induced signal (PPARG): decreased the agonist-induced signal back to the original baseline
expression of FABP4 (FABP4 expression): not
hierarchical clustering of gene expression signatures [1]: cluster with vehicle-treated controls
sensitivity of cell lines [2]: not sensitive
